According to patent US9181258B2, “Substituted 3,4-dihydropyrrolo[1,2-a]pyrazin-1(2H)-ones as protein kinase inhibitors” (NERVIANO MEDICAL SCIENCES S.R.L., priority 2011, dated 2015):
Counter-ions that a name gives are not always drawn.

Assays:
human PIM1 = human PIM1 (Homo sapiens (Human), UniProt P11309); assay: Biochemical assay for inhibitors of PIM1 kinase activity (trans-phosphorylation, Dowex technique); details: ATP 200 μM, Aktide 25 μM, enzyme 1 nM; read-out: PIM-1 IC50
Experimental: Biochemical Assay for Inhibitors of PIM1 Kinase Activity
The inhibitory activity of putative kinase inhibitors and the potency of selected compounds were determined using a trans-phosphorylation assay.
Specific peptide or protein substrates were trans-phosphorylated by their specific ser-thr or tyr kinase in the presence of ATP traced with ^33P-γ-ATP, and in the presence of their own optimal buffer and cofactors.
At the end of the phosphorylation reaction, more than 98% unlabeled ATP and radioactive ATP were captured by an excess of the ion exchange dowex resin; the resin then settled down to the bottom of the reaction plate by gravity. Supernatant was subsequently withdrawn and transferred into a counting plate, then evaluated by β-counting.
Reagents/Assay Conditions i. Dowex Resin Preparation
500 g of wet resin (SIGMA, custom prepared resin DOWEX 1×8 200-400 mesh, 2.5 Kg) were weighed out and diluted to 2 L in 150 mM sodium formate, pH 3.00.
The resin was allowed to settle down (some hours) and then the supernatant was discarded.
After three washes as above over a couple of days, the resin was allowed to settle and two volumes (wrt the resin volume) of 150 mM sodium formate buffer were added.
The pH was then measured and should have been around 3.00.
The washed resin was stable for more than one week; the stock resin was kept at 4° C. before use.
The buffer for PIM1 assay was composed of HEPES 50 mM, at pH 7.5, with 10 mM MgCl2, 1 mM DTT, 3 μM NaVO3, and 0.2 mg/mL BSA.
Full-length human PIM1 was expressed and purified as described in Bullock A N, et al., J. Biol. Chem. 2005, 280, 41675-82.
1.7 μM PIM1 was incubated 1 h at 28° C. in the presence of 125 μM ATP.
ATP concentration: 200 μM; ^33P-γ-ATP: 6 nM; Enzyme concentration: 1 nM Substrate concentration Aktide (Chemical Abstract Service Registry Number 324029-01-8): 25 μM iv. Robotized Dowex Assay
The test mix consisted of:
1) 3× Enzyme mix (done in Kinase Buffer 3×), 5 μL/well
2) 3× substrate and ATP mix (done in ddH2O), together with ^33P-γ-ATP, 5 μL/well 3) 3× test compounds (diluted into ddH2O—3% DMSO)—5 μL/well See below for compound dilution and assay scheme […]
An automated station (Biomek FX, Beckman) was used for serial dilutions, producing 1:3 dilutions in 100% DMSO, from line A1 to A10, for all the compounds in the column.
Data were analyzed by an internally customized version of the “Assay Explorer” SW package, which provided sigmoidal fitting of the ten-dilution curves for IC50 determination in secondary assay/hit confirmation routines.

human PIM2 = human PIM2 (Homo sapiens (Human), UniProt Q9P1W9); assay: PIM2 kinase inhibition assay: Dowex technique; format: biochemical; details: ATP 4 μM, Aktide 5 μM, enzyme 1.5 nM; read-out: PIM-2 IC50
Experimental: Method for PIM2 Kinase Inhibition Assay: Dowex Technique
The buffer for PIM2 assay was composed of HEPES 50 mM, at pH 7.5, with 1 mM MgCl2, 1 mM DTT, 3 μM Na3VO4, and 0.2 mg/mL BSA.
Full-length human PIM2 was expressed and purified as described in Fedorov O, et al., PNAS 2007 104, 51, 20523-28. ii. Assay Conditions (Final Concentrations)
Enzyme concentration=1.5 nM; ATP=4 μM; ^33P-γ-ATP=1 nM
Aktide substrate (Chemical Abstract Service Registry Number 324029-01-8)=5 μM iii. Robotized Dowex Assay
See above: same procedure as described for PIM1.

BaF3-PIM1 cells = assay: In vitro cell proliferation assay (CellTiter-Glo), BaF3-PIM1; format: cell-based; details: 72 hours
Experimental: In Vitro Cell Proliferation Assay
BaF3-PIM1 and MV-4-11 cells were seeded at 125 cells/well and 1250 cells/well respectively in a 384-well white plates in complete medium and treated with compounds dissolved in 0.1% DMSO, 24 h after seeding.
The cells were incubated at 37° C. and 5% CO2 and after 72 hours the plates were processed using CellTiter-Glo assay (Promega) following the manufacturer's instruction.
CellTiter-Glo was a homogenous method based on the quantification of the ATP present, an indicator of metabolitically active cells. ATP was quantified using a system based on luciferase and D-luciferin resulting into light generation. The luminescent signal was proportional to the number of cells present in culture.
Briefly 25 μl/well reagent solution were added to each wells and after 5 minutes shacking microplates were red by Envision (PerkinElmer) luminometer. The luminescent signal was proportional to the number of cells present in culture.
Inhibitory activity was evaluated comparing treated versus control data using Assay Explorer (MDL) program. IC50 was calculated using sigmoidal interpolation curve.

human PIM1, sequence (P11309 whole entry): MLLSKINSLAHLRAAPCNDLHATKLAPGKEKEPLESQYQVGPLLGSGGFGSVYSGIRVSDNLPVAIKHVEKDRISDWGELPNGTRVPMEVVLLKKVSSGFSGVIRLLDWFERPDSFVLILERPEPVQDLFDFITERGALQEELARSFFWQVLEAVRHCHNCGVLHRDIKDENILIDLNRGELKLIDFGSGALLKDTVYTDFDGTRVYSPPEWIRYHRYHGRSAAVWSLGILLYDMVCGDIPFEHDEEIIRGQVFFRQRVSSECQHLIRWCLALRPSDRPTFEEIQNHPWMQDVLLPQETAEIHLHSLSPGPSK
human PIM2, sequence (Q9P1W9 whole entry): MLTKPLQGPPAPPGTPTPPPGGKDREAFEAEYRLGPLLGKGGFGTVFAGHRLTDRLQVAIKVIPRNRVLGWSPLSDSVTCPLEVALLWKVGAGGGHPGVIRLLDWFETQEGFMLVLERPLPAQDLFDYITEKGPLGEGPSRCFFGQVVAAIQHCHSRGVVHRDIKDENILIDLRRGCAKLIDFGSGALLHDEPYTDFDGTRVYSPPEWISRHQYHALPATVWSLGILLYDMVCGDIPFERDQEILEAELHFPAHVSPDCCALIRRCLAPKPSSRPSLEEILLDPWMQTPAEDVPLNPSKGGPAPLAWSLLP

SMILES	IC50 (human PIM1) [nM]	IC50 (human PIM2) [nM]	IC50 (BaF3-PIM1 cells) [nM]
NCCC1CNC(=O)c2cc(-c3cccc(Cl)c3)c(-c3ccccc3)n21 (stereo not drawn) [Compound 17, 4-(2-aminoethyl)-7-(3-chlorophenyl)-6-phenyl-3,4-dihydropyrrolo[1,2-a]pyrazin-1(2H)-one trifluoroacetate]	34	117	450
NCCC1CNC(=O)c2cc(-c3cccc(C(F)(F)F)c3)c(-c3ccc(CO)cc3)n21 (stereo not drawn) [Compound 38, 4-(2-aminoethyl)-6-[4-(hydroxymethyl)phenyl]-7-[3-(trifluoromethyl)phenyl]-3,4-dihydropyrrolo[1,2-a]pyrazin-1(2H)-one hydrochloride]	20	102	3030
NCCC1CNC(=O)c2cc(-c3cccc(C(F)(F)F)c3)c(-c3ccc(O)cc3)n21 (stereo not drawn) [Compound 43, 4-(2-aminoethyl)-6-(4-hydroxyphenyl)-7-[3-(trifluoromethyl)phenyl]-3,4-dihydropyrrolo[1,2-a]pyrazin-1(2H)-one hydrochloride]	12	21	7000
CN(C)CCNC(=O)c1ccc(-c2c(-c3cccc(OC(F)(F)F)c3)cc3n2C(CCO)CNC3=O)cc1 (stereo not drawn) [Compound 78, N-[2-(dimethylamino)ethyl]-4-{4-(2-hydroxyethyl)-1-oxo-7-[3-(trifluoromethoxy)phenyl]-1,2,3,4-tetrahydropyrrolo[1,2-a]pyrazin-6-yl}benzamide trifluoroacetate]	6	90	4070
CNC(=O)c1ccc(-c2c(-c3cccc(OC(F)(F)F)c3)cc3n2C(CCO)CNC3=O)cc1 (stereo not drawn) [Compound 80, 4-{4-(2-hydroxyethyl)-1-oxo-7-[3-(trifluoromethoxy)phenyl]-1,2,3,4-tetrahydropyrrolo[1,2-a]pyrazin-6-yl}-N-methylbenzamide]	20	75	3810
CS(=O)(=O)c1ccc(-c2c(-c3cccc(OC(F)(F)F)c3)cc3n2[C@@H](CCN)CNC3=O)cc1 [Compound 96, (4S)-4-(2-aminoethyl)-6-[4-(methylsulfonyl)phenyl]-7-[3-(trifluoromethoxy)phenyl]-3,4-dihydropyrrolo[1,2-a]pyrazin-1(2H)-one hydrochloride]	1	3	5470
NCCC[C@H]1CNC(=O)c2cc(-c3cccc(OC(F)(F)F)c3)c(-c3ccc(O)cc3)n21 [Compound 104, (4S)-4-(3-aminopropyl)-6-(4-hydroxyphenyl)-7-[3-(trifluoromethoxy)phenyl]-3,4-dihydropyrrolo[1,2-a]pyrazin-1(2H)-one hydrochloride]	4	48	7000
NCCC[C@H]1CNC(=O)c2cc(-c3cccc(OC(F)(F)F)c3)c(-c3ccc(CO)cc3)n21 [Compound 105, (4S)-4-(3-aminopropyl)-6-[4-(hydroxymethyl)phenyl]-7-[3-(trifluoromethoxy)phenyl]-3,4-dihydropyrrolo[1,2-a]pyrazin-1(2H)-one hydrochloride]	16	109	6950
CN1CCN(Cc2ccc(-c3c(-c4cccc(OC(F)(F)F)c4)cc4n3[C@@H](CCCl)CNC4=O)cc2)CC1 [Compound 106, (4S)-4-(2-chloroethyl)-6-{4-[(4-methylpiperazin-1-yl)methyl]phenyl}-7-[3-(trifluoromethoxy)phenyl]-3,4-dihydropyrrolo[1,2-a]pyrazin-1(2H)-one]	27	99	210

Further lines, results first:

IC50 (human PIM1) [nM]	IC50 (human PIM2) [nM]	IC50 (BaF3-PIM1 cells) [nM]	SMILES
8	69	2020	NCCC1CNC(=O)c2cc(-c3cccc(OC(F)(F)F)c3)c(-c3cccc(N)c3)n21 (stereo not drawn) [Compound 32, 4-(2-aminoethyl)-6-(3-aminophenyl)-7-[3-(trifluoromethoxy)phenyl]-3,4-dihydropyrrolo[1,2-a]pyrazin-1(2H)-one hydrochloride]
4	15	598	NCCC1CNC(=O)c2cc(-c3cccc(OC(F)(F)F)c3)c(-c3ccc(CO)cc3)n21 (stereo not drawn) [Compound 33, 4-(2-aminoethyl)-6-[4-(hydroxymethyl)phenyl]-7-[3-(trifluoromethoxy)phenyl]-3,4-dihydropyrrolo[1,2-a]pyrazin-1(2H)-one hydrochloride]
24	110	6570	NCCC1CNC(=O)c2cc(-c3ccnc(Cl)c3)c(-c3ccc(CO)cc3)n21 (stereo not drawn) [Compound 44, 4-(2-aminoethyl)-7-(2-chloropyridin-4-yl)-6-[4-(hydroxymethyl)phenyl]-3,4-dihydropyrrolo[1,2-a]pyrazin-1(2H)-one hydrochloride]
7	58	2320	NC(=O)c1ccc(-c2c(-c3cccc(OC(F)(F)F)c3)cc3n2C(CCO)CNC3=O)cc1 (stereo not drawn) [Compound 77, 4-{4-(2-hydroxyethyl)-1-oxo-7-[3-(trifluoromethoxy)phenyl]-1,2,3,4-tetrahydropyrrolo[1,2-a]pyrazin-6-yl}benzamide]
13	93	1220	CN(C)C(=O)c1ccc(-c2c(-c3cccc(OC(F)(F)F)c3)cc3n2C(CCO)CNC3=O)cc1 (stereo not drawn) [Compound 79, 4-{4-(2-hydroxyethyl)-1-oxo-7-[3-(trifluoromethoxy)phenyl]-1,2,3,4-tetrahydropyrrolo[1,2-a]pyrazin-6-yl}-N,N-dimethylbenzamide]
11	69	6050	CN1CCC(NC(=O)c2ccc(-c3c(-c4cccc(OC(F)(F)F)c4)cc4n3C(CCO)CNC4=O)cc2)CC1 (stereo not drawn) [Compound 81, 4-{4-(2-hydroxyethyl)-1-oxo-7-[3-(trifluoromethoxy)phenyl]-1,2,3,4-tetrahydropyrrolo[1,2-a]pyrazin-6-yl}-N-(1-methylpiperidin-4-yl)benzamide trifluoroacetate]
11	90	224	O=C1NCC(CCO)n2c1cc(-c1cccc(OC(F)(F)F)c1)c2-c1ccc(CO)cc1 (stereo not drawn) [Compound 84, 4-(2-hydroxyethyl)-6-[4-(hydroxymethyl)phenyl]-7-[3-(trifluoromethoxy)phenyl]-3,4-dihydropyrrolo[1,2-a]pyrazin-1(2H)-one]
1	16	699	NCC[C@H]1CNC(=O)c2cc(-c3cccc(OC(F)(F)F)c3)c(-c3ccc(O)cc3)n21 [Compound 93, (4S)-4-(2-aminoethyl)-6-(4-hydroxyphenyl)-7-[3-(trifluoromethoxy)phenyl]-3,4-dihydropyrrolo[1,2-a]pyrazin-1(2H)-one hydrochloride]
11	82	6510	CS(=O)(=O)c1ccc(-c2c(-c3cccc(OC(F)(F)F)c3)cc3n2[C@@H](CCCN)CNC3=O)cc1 [Compound 109, (4S)-4-(3-aminopropyl)-6-[4-(methylsulfonyl)phenyl]-7-[3-(trifluoromethoxy)phenyl]-3,4-dihydropyrrolo[1,2-a]pyrazin-1(2H)-one hydrochloride]
